In patent US8642593B2, “2,4-pyrimidinediamine compounds and prodrugs and their uses” (Rigel Pharmaceuticals, Inc., priority 2009, dated 2014):
Read-outs that look alike come from different tables or passages of the source.

How the values were obtained:
[1] = target: T1, VEGF-induced phosphorylation of VEGFR in HUVEC cells (Homo sapiens, UniProt P35968); assay: Cellular VEGFR Assay; type: cell-based; conditions: for IC50: HUVEC cells, Table 2, unit inferred, read-out: Cellular VEGFR2; for selectivity against VEGF as compared to the control: vs control compound
T1 construct: VEGF-induced phosphorylation of VEGFR in HUVEC cells; host or cells: HUVEC cells
T1 sequence (P35968 20-1356): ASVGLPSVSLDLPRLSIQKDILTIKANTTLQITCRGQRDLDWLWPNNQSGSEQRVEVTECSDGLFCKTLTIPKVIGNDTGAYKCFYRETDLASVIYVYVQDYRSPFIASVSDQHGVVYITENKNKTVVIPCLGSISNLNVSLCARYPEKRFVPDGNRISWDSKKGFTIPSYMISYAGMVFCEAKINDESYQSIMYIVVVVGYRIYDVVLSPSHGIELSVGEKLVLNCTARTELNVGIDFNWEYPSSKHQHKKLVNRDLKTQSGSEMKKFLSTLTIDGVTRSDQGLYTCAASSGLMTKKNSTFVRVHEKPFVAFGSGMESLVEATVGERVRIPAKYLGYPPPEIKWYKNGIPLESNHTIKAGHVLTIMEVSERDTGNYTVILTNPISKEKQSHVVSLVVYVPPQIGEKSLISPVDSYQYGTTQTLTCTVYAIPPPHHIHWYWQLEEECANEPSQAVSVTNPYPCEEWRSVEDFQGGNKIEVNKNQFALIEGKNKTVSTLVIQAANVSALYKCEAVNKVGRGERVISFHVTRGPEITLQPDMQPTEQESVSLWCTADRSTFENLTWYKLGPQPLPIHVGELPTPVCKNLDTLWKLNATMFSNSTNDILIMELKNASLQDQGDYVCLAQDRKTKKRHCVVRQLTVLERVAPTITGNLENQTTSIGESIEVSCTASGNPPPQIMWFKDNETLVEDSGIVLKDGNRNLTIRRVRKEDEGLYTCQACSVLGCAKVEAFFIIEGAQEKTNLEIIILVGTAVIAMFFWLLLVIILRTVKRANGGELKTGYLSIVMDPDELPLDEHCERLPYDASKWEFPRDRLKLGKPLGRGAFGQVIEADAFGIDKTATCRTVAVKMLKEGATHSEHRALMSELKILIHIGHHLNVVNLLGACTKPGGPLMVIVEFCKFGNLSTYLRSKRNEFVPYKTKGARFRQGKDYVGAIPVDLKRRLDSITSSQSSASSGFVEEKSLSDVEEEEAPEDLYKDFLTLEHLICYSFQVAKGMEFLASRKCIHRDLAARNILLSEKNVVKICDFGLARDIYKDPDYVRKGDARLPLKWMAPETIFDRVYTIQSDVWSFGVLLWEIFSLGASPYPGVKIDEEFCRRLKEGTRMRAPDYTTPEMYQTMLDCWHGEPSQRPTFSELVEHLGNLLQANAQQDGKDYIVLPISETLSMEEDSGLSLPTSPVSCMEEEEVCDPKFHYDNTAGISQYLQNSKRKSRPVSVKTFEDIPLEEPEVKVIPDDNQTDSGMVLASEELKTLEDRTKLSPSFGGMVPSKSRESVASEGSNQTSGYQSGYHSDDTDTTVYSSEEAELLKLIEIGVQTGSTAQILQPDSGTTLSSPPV
Experimental: The coated plates are then blocked with 2% BSA in PBS for 2 hours.
Cells are washed 1× with PBS. 100 μL starvation medium (EBM2 media, Cambrex, #CC3156, containing 1% BSA and 0.2% FBS) is added and cells are returned to the incubator for 20-24 hours. Test compounds or control drugs are serially diluted in DMSO in a compound plate and further diluted 1:250 in starvation medium. 100 μL, of this 2× concentration is dosed to the cells. […] Plates are then placed on a rocker/shaker at 4° C. for 1 hour.
Phosphorylated VEGFR2 is determined by ELISA. After a wash with TBST, 30 μL/well of the cell lysate is transferred into the anti-human VEGFR2 mAb-coated plates (described above) containing 200 μL/well of 1% BSA in PBS, and incubated with shaking at 4° C. overnight. […] The signal is read using a SpectraMax M5 plate reader.

[2] = test system: allergen induced basophil degranulation; assay: CD63 Assay (BASOTEST, FACS, whole blood, anti-IgE); type: cell-based; conditions: for potency compared with the control in the presence of whole blood (CD63 assay): vs control compound; for IC50: whole blood, anti-IgE, Table 2, unit inferred
Experimental: Compounds are tested for the ability to inhibit allergen induced basophil degranulation. The BASOTEST® kit (Orpegen Pharma GmbH, #10-0500) is used in this assay. In a 5 mL FACS tube 105 μL of Heparinized whole blood, 25 μL of test compound solution (in DMSO) are incubated at room temperature for 30-60 minutes. To induce degranulation, 20 μL stimulation buffer (Reagent B) is added, and the tube is incubated for 10 min in a 37° C. water bath. Then, 100 μL of anti-IgE (2 μg/mL) is added, or 100 µL of washing solution (reagent A) is added (i.e., as a negative control). The tube is incubated for 20 min in a 37° C. water bath. Degranulation is then stopped by incubation on ice for 5 min. 20 μL of staining reagent (reagent F) is added, and the tube is incubated on ice in the dark for 20 min. 2 mL of room temperature lysing solution is added, and the tube is incubated at room temperature for 10 min. The tubes are spun down at 4° C. for 5 min at 1600 rpm, and the supernatant is discarded. 3 mL washing solution (reagent A) is added, and the tubes spun down at 4° C. for 5 min at 1600 rpm, and the supernatant is discarded. 200 μL washing solution is added to the remaining cell pellet, and the samples are incubated on ice in the dark until analysis (within 2 h). Analysis is performed using flow cytometry at 488 nm using the conditions specified in the BASOTEST® kit instructions to determine percentage of activated basophilic granulocytes.

[3] = test system: mast cell activation induced by FcγR cross-linking (CHMC cells); assay: LD Tryptase CHMC: tryptase release assay; type: cell-based, Human; conditions: for IC50: Mast cell; for potency compared with the control, whole cell assay: vs control compound
Experimental: Compounds are assayed for inhibition of mast cell activation induced by FcγR cross-linking by measuring the activity of tryptase released upon degranulation as follows:
Human mast cells are cultured and differentiated from CD38-negative progenitor cell as described in U.S. Patent Publication No. 2005/0234049, which is hereby incorporated herein by reference in its entirety. For example, 65 μL of various concentrations of the test compound are prepared in MT (137 mM NaCl, 2.7 mM KCl, 1.8 mM CaCl2, 1.0 mM MgCl2, 5.6 mM Glucose, 20 mM Hepes (pH 7.4), 0.1% Bovine Serum Albumin, (Sigma, #A4503)) containing 2% MeOH and 1% DMSO, or control buffer are added to duplicate 96-well V-bottom plates. Pelleted and re-suspended (in warm MT) CHMC cells (65 μL) are added to each 96-well plate, mixed and incubated for 1 hour at 37° C. […] MT (25 μL) is added to control wells. After a 60-minute incubation at 37° C., cells and cell debris were pelleted by centrifugation at 1000 rpm for 10 min and tryptase and leukotriene C4 levels are measured.
To measure tryptase levels, 25 μL of supernatant from each well is transferred to a fresh 96-well black bottom plate, to which 100 μL of fresh tryptase substrate solution [(Z-Ala-Lys-Arg-AMC2TFA; Enzyme Systems Products, #AMC-246)]1:2000 in tryptase assay buffer [0.1M Hepes (pH 7.5), 10% w/v Glycerol, 10 μM Heparin (Sigma H-4898) 0.01% NaN3] is added. After 30 minutes incubation at room temperature, the optical density of the plates is measured at 355 nm/460 nm on a spectrophotometric plate reader.
Compounds of the disclosure were assayed for their ability to inhibit mast cell activation induced by FcγR cross-linking by measuring the activity of tryptase released upon degranulation.

[4] = target: T2, Ret kinase in SK-N-SH brain neuroblastoma cells (Homo sapiens, UniProt P07949); assay: Cellular Ret Assay; type: cell-based; conditions: GDNF, Table 2, unit inferred
T2 construct: Ret is immunoprecipitated from the detergent-soluble cell lysate; host or cells: SK-N-SH brain neuroblastoma cells
T2 sequence (P07949 29-1114): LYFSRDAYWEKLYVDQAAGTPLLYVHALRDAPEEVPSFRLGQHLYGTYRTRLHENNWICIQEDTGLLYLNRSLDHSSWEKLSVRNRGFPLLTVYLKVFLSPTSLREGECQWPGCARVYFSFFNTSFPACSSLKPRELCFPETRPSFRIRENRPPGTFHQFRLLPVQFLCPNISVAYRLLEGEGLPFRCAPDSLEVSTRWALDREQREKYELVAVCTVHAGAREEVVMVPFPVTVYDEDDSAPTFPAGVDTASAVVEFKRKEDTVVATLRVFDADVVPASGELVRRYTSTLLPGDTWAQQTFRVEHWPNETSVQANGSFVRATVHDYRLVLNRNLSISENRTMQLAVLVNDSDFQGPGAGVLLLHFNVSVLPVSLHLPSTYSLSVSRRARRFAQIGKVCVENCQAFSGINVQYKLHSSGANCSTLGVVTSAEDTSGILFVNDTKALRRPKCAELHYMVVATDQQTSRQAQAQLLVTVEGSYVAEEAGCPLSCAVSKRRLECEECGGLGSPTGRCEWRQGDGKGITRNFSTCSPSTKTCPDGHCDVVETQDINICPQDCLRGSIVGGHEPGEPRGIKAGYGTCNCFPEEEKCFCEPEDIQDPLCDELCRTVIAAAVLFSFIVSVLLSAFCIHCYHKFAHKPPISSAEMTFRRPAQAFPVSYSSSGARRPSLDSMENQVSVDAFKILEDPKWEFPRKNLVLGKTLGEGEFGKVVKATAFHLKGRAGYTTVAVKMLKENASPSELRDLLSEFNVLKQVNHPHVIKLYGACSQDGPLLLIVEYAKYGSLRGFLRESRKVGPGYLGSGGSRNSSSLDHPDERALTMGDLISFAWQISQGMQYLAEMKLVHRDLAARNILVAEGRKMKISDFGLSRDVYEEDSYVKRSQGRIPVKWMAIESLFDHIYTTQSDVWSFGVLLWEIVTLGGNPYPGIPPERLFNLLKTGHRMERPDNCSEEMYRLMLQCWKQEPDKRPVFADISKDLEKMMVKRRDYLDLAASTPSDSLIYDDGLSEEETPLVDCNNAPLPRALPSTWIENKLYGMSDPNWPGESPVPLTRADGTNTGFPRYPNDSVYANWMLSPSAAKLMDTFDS
Experimental: Compounds are tested for the ability to inhibit Ret kinase in cells. SK-N-SH brain neuroblastoma cells (ATCC, #HTB-1, maintained and plated in DMEM (Cellgro Mediatech, #10-013-CV) with 10% fetal bovine serum (JRH, #12106-500M) are seeded in 10 cm plates in 10 mL of culture media and allowed to reach 85% confluence by the next day. The medium is replaced with 5 mL of DMEM (without fetal bovine serum) containing DMSO or test compound (final 0.1% DMSO), and incubated at 37° C./5% CO2 for 1 hour. SK-N-SH cells are then stimulated with 50 ng/mL of human recombinant GDNF (Peprotech, #450-10) for 10 minutes. Cells are washed once with cold 1×PBS and lysed with 500 μL of 1% NP-40 lysis buffer (Tris HCl pH 7.4 with 150 mM NaCl, 1 mM NaVn, 1% Nonidet-P40 (Fisher Scientific, #PI-28324), protease inhibitor tablet (Roche, 1697498)). […]
After washing with 1×TBST for 2 hours with five buffer changes, the membrane is probed with Goat anti-Mouse IgG HRP antibody (Jackson Immunoresearch Labs, #115-035-146, 1:2000) in 1×TBST+5% milk for 1 hour at room temperature. The membrane is washed with TBST for 2 hours with five buffer changes, treated with ECL plus Western Blot detection reagent (GE Healthcare, formerly Amersham, #RPN2132) according to the instruction manual, and the chemiluminescent signal is detected on Kodak Biomax MR Film (VWR, # IB8701302).

[5] = Homo sapiens, Table 2, unit inferred, read-out: LD Tryptase CHMC
[6] = Homo sapiens, read-out: IC50 value (tryptase assay)
[7] = human mast cells, anti-IgG stimulation, read-out: IC50 (LD Tryptase CHMC)

| IC50 [1] [nM] | selectivity against VEGF as compared to the control [1] | IC50 [2] [nM] | IC50 [3, 5] [nM] | IC50 [3, 6] [nM] | IC50 [3, 7] [nM] | IC50 [4] [nM] | Structure (SMILES) | potency compared with the control in the presence of whole blood (CD63 assay) [2] | potency compared with the control, whole cell assay [3] |
| --- | --- | --- | --- | --- | --- | --- | --- | --- | --- |
| 16800 | significantly increased selectivity | 250 | 90 | < 100 | 90 | > 5000 | CC1(C)Oc2ccc(Nc3nc(Nc4ccc(N5CCOCC5)nc4)ncc3F)nc2NC1=O [Compound 1, N4-(2,2-Dimethyl-3-oxo-4H-5-pyrido[1,4]oxazin-6-yl)-5-fluoro-N2-[6-morpholinopyridin-3-yl]-2,4-pyrimidinediamine] | more potent | somewhat less potent than the control |
| 5230 | significantly increased selectivity | 300 | 80 | < 100 | 80 | > 1000 | CC1(C)Oc2ccc(Nc3nc(Nc4ccc(N5CCOCC5)cc4)ncc3F)nc2NC1=O [Compound 3, N4-(2,2-Dimethyl-3-oxo-4H-5-pyrido[1,4]oxazin-6-yl)-5-fluoro-N2-(4-morpholinophenyl)-2,4-pyrimidinediamine] | more potent | somewhat less potent than the control |
